In patent publication US8597632B2, “Anionic oligosaccharide conjugates” (Glycan Biosciences LLC, priority 2008, dated 2013):

Key:
[1] = biological target: T1, MCP-1 (CCL2) (Homo sapiens, UniProt P13500); test: BIAcore: inhibition of MCP-1 binding to immobilized heparin; settings: % relative to heparin concentration required to inhibit chemokine binding by 50%; heparin set at 100%
T1 construct: host or cells: E. coli
From the text: (§1) The optical phenomenon of surface plasmon resonance is used to monitor physical interactions between molecules. Passing a solution of a potential protein ligand (e.g. IL-4, IL-5, eotaxin-1, eotaxin-2, IL-8 or MCP-1) over a sensor surface to which a target (e.g. heparin) is coupled monitors the real-time binding of protein ligands to the immobilized target. Detection is achieved by measuring refractive index changes very close to the sensor surface. When the refractive index is altered, the angle at which plasmon resonance occurs changes and this change directly correlates with the amount of protein interacting with the surface. A BIAcore 2000 is conveniently used. […]
(§2) Biotinylated heparin is immobilized on the biosensor chip. […] Solutions containing potential protein ligands of interest are injected over the sensor chip surface, and the binding is measured in real time (Fernig, In: Proteoglycan protocols, Ed. R. V. Iozzo, Humana Press, Totowa, N.J., USA, 2001). Baculovirus expressed recombinant human IL-4 (rhIL-4) and baculovirus expressed recombinant human IL-5 (rhIL-5) readily bind to heparin immobilized by this method (see PCT/AU2005/000551). […] Similarly, recombinant human eotaxin-1 (CCL11) expressed in E. coli binds readily to immobilized heparin and binding is specific as there is little eotaxin binding to sensor chips lacking heparin (see 30544601 PCT glycan151). […]

[2] = biological target: T2, recombinant human IL-4 (rhIL-4) (Homo sapiens, UniProt P05112); test: BIAcore: inhibition of IL-4 binding to a heparin chip; settings: End point heparin
T2 construct: host or cells: baculovirus expression system
T2 sequence (P05112 25-153): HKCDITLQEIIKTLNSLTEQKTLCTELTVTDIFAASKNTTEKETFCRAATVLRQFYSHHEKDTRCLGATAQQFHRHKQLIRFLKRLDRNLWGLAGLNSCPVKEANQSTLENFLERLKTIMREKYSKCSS
From the text: as §1, §2

[3] = biological target: T3, recombinant human IL-5 (rhIL-5) (Homo sapiens, UniProt P05113); test: BIAcore: inhibition of IL-5 binding to a heparin chip; settings: Biotin-heparin
T3 construct: host or cells: baculovirus expression system
T3 sequence (P05113 20-134): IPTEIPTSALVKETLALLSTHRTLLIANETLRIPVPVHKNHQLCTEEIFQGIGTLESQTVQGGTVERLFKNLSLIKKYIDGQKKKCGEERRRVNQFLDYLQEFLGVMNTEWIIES
From the text: as §1, §2

[4] = biological target: T4, Human leukocyte elastase (Homo sapiens, UniProt P08246); test: Human leukocyte elastase fluorogenic substrate assay; type: biochemical; settings: elastase 5 nM/well, MeOSuc-Ala-Ala-Pro-Val-amido-methylcoumarin 20 μM/well, pH 7.4, 37° C., 60 minutes; read-out: Inhibition of Elastase activity IC50
T4 sequence (P08246 30-267): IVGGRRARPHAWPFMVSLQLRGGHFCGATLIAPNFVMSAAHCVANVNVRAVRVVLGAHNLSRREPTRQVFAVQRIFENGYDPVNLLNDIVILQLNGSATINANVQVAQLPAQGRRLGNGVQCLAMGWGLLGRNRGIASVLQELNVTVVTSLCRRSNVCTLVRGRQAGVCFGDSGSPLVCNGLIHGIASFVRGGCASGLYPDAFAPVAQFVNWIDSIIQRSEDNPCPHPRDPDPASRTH
Method: Elastase is a protein that is a potential target for the treatment of COPD. Elastase assays were performed in 96-well plastic microplates for easy quantification by the fluorescent plate reader. Human leukocyte elastase (5 nM/well) was incubated in the presence ofrabsence of sulfated polysaccharides, with the fluorogenic substrate MeOSuc-Ala-Ala-Pro-Val-amido-methylcoumarin (20 μM/well) in a sodium phosphate buffer, pH 7.4. The mixture was incubated at 37° C. for 60 minutes before the reaction was stopped by the addition of 10 μL/well of […] acetic acid and the mixture transferred to a 96-well microplate with fluorescence being measured using an excitation wavelength of 355 nm and an emission wavelength of 460 nm. Various concentrations of inhibitors were used to allow the calculation of the concentration of anionic oligosaccharide conjugate required to inhibit enzyme activity by 50% (IC50). […] The linked xylopentaose series were not very effective inhibitors of elastase activity. In this assay heparin has an IC50 of approximately 200 nM (Table 6).

[5] = biological target: T5, IL-8 (CXCL8) (Homo sapiens, UniProt P10145); test: BIAcore: inhibition of IL-8 binding to immobilized heparin; settings: % relative to heparin concentration required to inhibit chemokine binding by 50%; heparin set at 100%
T5 construct: host or cells: E. coli
T5 sequence (P10145 21-99): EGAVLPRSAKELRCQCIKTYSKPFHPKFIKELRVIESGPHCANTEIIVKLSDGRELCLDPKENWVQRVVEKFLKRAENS
From the text: as §1, §2

[6] = biological target: T6, eotaxin-2 (CCL24) (Homo sapiens, UniProt O00175); test: BIAcore: inhibition of Eotaxin-2 binding to immobilized heparin; settings: % relative to heparin concentration required to inhibit chemokine binding by 50%; heparin set at 100%
T6 construct: host or cells: E. coli
T6 sequence (O00175 27-119): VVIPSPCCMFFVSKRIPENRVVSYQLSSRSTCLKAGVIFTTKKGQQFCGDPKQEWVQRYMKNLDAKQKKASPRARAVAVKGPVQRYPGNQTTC
From the text: as §1, §2

T1 sequence (P13500 24-99): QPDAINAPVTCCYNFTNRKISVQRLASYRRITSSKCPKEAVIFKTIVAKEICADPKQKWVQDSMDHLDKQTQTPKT

IC50 relative to heparin (% of heparin IC50) [1]: 100%
IC50 [2]: 3300 nM
IC50 [3]: 37 nM
IC50 [4]: ~200 nM
Concentration for 50% inhibition of chemokine binding relative to heparin [5]: 100%
Concentration for 50% inhibition of Eotaxin-2 binding to heparin chip, as % of heparin's [6]: 100%
Substance: Heparin
